According to paper PMC7254991, “Design and validation of fibroblast activation protein alpha targeted imaging and therapeutic agents” (Theranostics, 2020):

Molecular target: T1, fibroblast activation protein alpha (FAP) (Homo sapiens, UniProt Q12884)
T1 construct: human FAP expressed on HEK293 cells (HEK293-hFAP)
T1 sequence (Q12884 1-760): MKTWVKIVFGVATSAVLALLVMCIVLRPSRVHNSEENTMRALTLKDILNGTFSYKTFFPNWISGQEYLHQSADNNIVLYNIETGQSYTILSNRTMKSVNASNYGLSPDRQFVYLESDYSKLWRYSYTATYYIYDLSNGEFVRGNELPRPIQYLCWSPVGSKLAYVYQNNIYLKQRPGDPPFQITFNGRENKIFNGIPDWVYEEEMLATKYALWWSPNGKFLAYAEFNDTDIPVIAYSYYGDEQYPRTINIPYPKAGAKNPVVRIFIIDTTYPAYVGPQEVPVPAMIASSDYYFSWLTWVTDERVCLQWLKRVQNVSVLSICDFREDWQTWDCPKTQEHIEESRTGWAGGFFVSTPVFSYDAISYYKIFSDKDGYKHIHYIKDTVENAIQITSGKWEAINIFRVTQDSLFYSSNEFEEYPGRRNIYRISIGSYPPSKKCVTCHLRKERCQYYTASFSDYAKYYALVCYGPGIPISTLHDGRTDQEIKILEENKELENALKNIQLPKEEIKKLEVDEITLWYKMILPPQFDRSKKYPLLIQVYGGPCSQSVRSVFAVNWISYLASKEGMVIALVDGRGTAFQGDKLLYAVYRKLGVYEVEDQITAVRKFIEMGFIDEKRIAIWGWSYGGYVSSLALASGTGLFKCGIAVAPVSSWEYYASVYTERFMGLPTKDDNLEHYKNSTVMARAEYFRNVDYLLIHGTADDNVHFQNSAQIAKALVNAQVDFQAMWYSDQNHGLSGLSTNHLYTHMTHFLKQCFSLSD
Experiment: competition (excess unlabeled FL) against FL-L1-FITC, FL-L1-S0456 and […]mTc-FL-L3 binding on HEK293-hFAP cells
Type: cell-based

C[C@H](NC(=O)c1ccnc(CN)c1)C(=O)N1CC(F)(F)C[C@H]1C#N [compound 8, FL]
competition (excess unlabeled FL) against FL-L1-FITC, FL-L1-S0456 and 99mTc-FL-L: Blocking of FL-L1-FITC related fluorescence by unlabeled FAP ligand (FL), indicated FAP mediated uptake of FL-L1-FITC in HEK293-hFAP cells
